This passage reports responders, pest or weed control and MIC results from patent US4965280A, “Antifungal carbinols” (E. I. Du Pont de Nemours and Company, priority 1989, dated 1990).

In brackets after ≈: the same amount, converted by molar mass. Like-named read-outs stand apart in the source and are kept apart here.

For assay [1], the system named is Candida albicans ATCC 11651. Kind of assay: In vivo systemic Candida infection in mice, primary assay. On the set-up: species or system Candida albicans; CF-1 female mice. To be noted: Candida albicans, 150 mg/kg per day, read-out: % Survival. The method in brief: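 CF-1 female mice (20 g, 10 per group) were infected IV with 0.2 ml of 1×10^7/ml C. albicans ATCC 11651, then given test compound subcutaneously at 50 or 150 mg/kg/day at 1 and 6 h post-infection and once daily for three more days. Survival was followed for 21 days against infected untreated mice; ≥70% protection at 14 days was scored active.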

A further assay deals with Venturia inaequalis. Put plainly: Example A apple scab. The class given is in vivo. To be noted: read-out: disease control rating, Ex. A. The method in brief:
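Spray application to run-off on apple seedlings; compound at 100 or 20 ppm in water with 250 ppm TREM 014 (polyhydric alcohol esters) and 6% acetone of final volume.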

Assay [2] concerns Cercosporidium personatum. Put plainly: Example B Peanut Late Leafspot. It is filed as in vivo. The note with it: Nothopassalora personata, read-out: disease control rating, Ex. B. The method in brief:
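Spray suspensions at 100 or 20 ppm, prepared from acetone solutions (acetone 6% of final volume) in water carrying 250 ppm of a polyhydric alcohol ester surfactant, were applied to peanut seedlings until run-off.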

The next assay concerns Botrytis cinerea. Put plainly: Example C bean grey mold. The class given is in vivo. The note with it: Botrytis cinerea, 24 h, read-out: disease control rating, Ex. C. The method in brief: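 Spray rates: 100 and 20 ppm. Vehicle: purified water with 6% acetone by final volume plus 250 ppm TREM 014 (polyhydric alcohol esters). Host plants, broad bean seedlings, were wetted until run-off.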

The test system of assay [3] is Erysiphe graminis f. sp. tritici. Kind of assay: Example D wheat powdery mildew. It is filed as in vivo. The note with it: Blumeria graminis, 144 h, read-out: disease control rating, Ex. D. The essentials: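 Seedling wheat was treated by spraying to run-off; formulation used acetone as co-solvent (6% final) and TREM 014 surfactant at 250 ppm, with compound at 100 or 20 ppm.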

Another assay deals with Pyricularia oryzae. Kind of assay: whole plant or invertebrate. The class given is in vivo. To be noted: Pyricularia oryzae, 120 h; for pest or weed control at 100 ppm: read-out: disease control rating, Ex. E, 100 PPM.
The test system of assay [4] is Rhizoctonia solani. Put plainly: Example F rice sheath blight. It is filed as in vivo. The note with it: Rhizoctonia solani, 144 h, read-out: disease control rating, Ex. F. The essentials:
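Foliar run-off spray, rice seedlings: compound at 100 or 20 ppm in aqueous 250 ppm polyhydric alcohol ester surfactant, acetone 6% v/v final.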

The test system of a further assay is Puccinia recondita. Put plainly: Example G wheat leaf rust. It is filed as in vivo. The note with it: read-out: disease control rating, Ex. G.
The next assay deals with Phytophthora infestans. Kind of assay: whole plant or invertebrate. It is filed as in vivo. To be noted: Phytophthora infestans, in Solanum lycopersicum, read-out: disease control rating, Ex. H, 100 PPM.
The next assay relates to Plasmorpara viticola. Kind of assay: Example I grape downy mildew. It is filed as in vivo. The note with it: read-out: disease control rating, Ex. I. The method in brief:
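First, each compound is taken up in acetone amounting to 6% of the final volume. It is then suspended in purified water containing 250 ppm of the polyhydric alcohol ester surfactant TREM 014, at 100 or 20 ppm. Finally, the suspension is sprayed onto grape seedlings until run-off.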

The test system of the next assay is Pythium aphanadermatum. Put plainly: Example J cucumber damping off. The class given is in vivo. The note with it: Pythium, 336 h; 5 kg/ha; read-out: disease control rating, Ex. J. The essentials:
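Seeds and soil were inoculated with a mix of sand, cereal and Pythium aphanadermatum mycelium, the fungus responsible for cucumber damping off. They were kept in a growth chamber at 30° C. for 14 days, and disease was then rated to assess control.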

The subject of assay [5] is Rhizoctonia solani. Kind of assay: Example K cotton blight. The class given is in vivo. The note with it: 336 h, 5 kg/ha, read-out: disease control rating, Ex. K. The protocol: […] Seeds and soil were then inoculated with a mixture of sand, cereal and mycelium of the fungus Rhizoctonia solani, causal agent of cotton blight, and incubated in a growth chamber at 30° C. for 14 days. Disease ratings were then made.

In assay [6] the test system is Fusarium oxysporum f. sp. cucumerinum. Put plainly: Example L cucumber wilt. The class given is in vivo. To be noted: 336 h, 5 kg/ha, read-out: disease control rating, Ex. L. As for the experimental part: […] Seeds and soil were then inoculated with a mixture of sand, cereal and mycelium of the fungus Fusarium oxysporum f. sp. cucumerinum, causal agent of cucumber wilt, and incubated in a growth chamber at 30° C. for 14 days. Disease ratings were then made.

In another assay the test system is Sclerotium rolfsii. Put plainly: Example M southern blight. It is filed as in vivo. To be noted: Agroathelia rolfsii, 336 h; 5 kg/ha; read-out: disease control rating, Ex. M. The protocol:
[…] Seeds and soil were then inoculated with a mixture of sand, cereal and mycelium of the fungus Sclerotium rolfsii, causal agent of sourthern blight, and incubated in a growth chamber at 30° C. for 14 days. Disease ratings were then made.

Assay [7] has as its system Candida albicans ATCC 11651. Put plainly: In vitro antifungal MIC, microtiter broth dilution. To be noted: Candida albicans, ATCC11651, 24 h, read-out: MIC values, C. albicans, 30°, 24 hours. Background: Dilution methods test growth across graded concentrations, often in twofold steps.
Assay [8] has as its system Aspergillus fumigatus ATCC 28214. Kind of assay: In vitro antifungal MIC, microtiter broth dilution. To be noted: Aspergillus fumigatus, ATCC28214, 24 h, read-out: MIC values, A. fumigatus, 30°, 24 hours.

The term MIC denotes the lowest concentration that inhibits growth of the organism. As for `C=C(c1ccccc1Cl)C(O)(Cn1cncn1)c1ccc(Cl)cc1` (stereo not drawn) [Example 34], the responders at 150 mg/kg in assay [1] (ATCC11651, 168 h, day 7) is 100%; in assay [1] (ATCC11651, 336 h, day 14) it was 100%; in [1] (ATCC11651, 504 h, day 21), 100%. The pest or weed control at 100 ppm with Venturia inaequalis was 69%; in [2], 100%; in the assay on Botrytis cinerea, 94%; in assay [3] it was 60%; with Pyricularia oryzae, 86%; in the assay with Rhizoctonia solani [4], 16%. The pest or weed control at 100 ppm came out at 66% with Puccinia recondita, 0% with Phytophthora infestans and 0% in the assay on Plasmorpara viticola. The pest or weed control at 5000 g/ha (in the assay on Pythium aphanadermatum; with Rhizoctonia solani [5]; in [6]; in the assay on Sclerotium rolfsii) was 0% throughout. The results for the MIC in assay [7] and in [8] were 0.03 µg/mL (≈ 0.0833 µM) and 3.2 µg/mL (≈ 8.88 µM), respectively.
Turning to `C=C(c1cccc(Cl)c1)C(O)(Cn1cncn1)c1ccc(F)cc1` (stereo not drawn) [Example 39], the responders at 150 mg/kg in [1] (ATCC11651, 168 h, day 7) was 100%; in [1] (ATCC11651, 336 h, day 14) it was 80%. Further, the pest or weed control at 100 ppm in the assay on Venturia inaequalis was found to be 89%; in assay [2], 97%; in the assay with Botrytis cinerea it was 96%; in assay [3], 98%; with Pyricularia oryzae, 7%; with Rhizoctonia solani [4], 100%. For the same compound, the values for the pest or weed control at 100 ppm in the assay on Puccinia recondita, in the assay with Phytophthora infestans and with Plasmorpara viticola were 100%, 0% and 81%, respectively. Further, the pest or weed control at 5000 g/ha (in the assay on Pythium aphanadermatum; with Rhizoctonia solani [5]; in [6]; with Sclerotium rolfsii) was 0% in each case. Further, the results for the MIC in assay [7] and in [8] were 0.4 µg/mL (≈ 1.16 µM) and 25 µg/mL (≈ 72.7 µM), respectively.
Turning to `C=C(c1cccc(Cl)c1)C(O)(Cn1cncn1)c1ccc(Cl)cc1Cl` (stereo not drawn) [Example 40, 2-(2,4-Dichlorophenyl)-3-(3-chlorophenyl)-1-(1H-1,2,4-triazol-1-yl)-3-buten-2-ol], the responders at 150 mg/kg in assay [1] (ATCC11651, 168 h, day 7) was found to be 100%; in [1] (ATCC11651, 336 h, day 14), 100%. The pest or weed control at 100 ppm in the assay on Venturia inaequalis was 19%; in [2], 100%; with Botrytis cinerea it was 80%; in [3] it was 91%; with Pyricularia oryzae, 7%; in the assay with Rhizoctonia solani [4], 61%. The pest or weed control at 100 ppm with Puccinia recondita came to 96%; in the assay on Phytophthora infestans, 0%; in the assay on Plasmorpara viticola it was 0%. Further, the pest or weed control at 5000 g/ha (in the assay on Pythium aphanadermatum; in the assay on Rhizoctonia solani [5]; in assay [6]; in the assay with Sclerotium rolfsii) was 0% in each case. In addition, the MIC in assay [7] worked out at 0.4 µg/mL (≈ 1.01 µM); in [8] it was 3.2 µg/mL (≈ 8.11 µM).
With `C=C(c1cccc(Cl)c1)C(O)(Cn1cncn1)c1ccc(Cl)cc1` (stereo not drawn) [Example 41], the responders at 150 mg/kg in assay [1] (ATCC11651, 168 h, day 7) turned out to be 100%; in assay [1] (ATCC11651, 336 h, day 14) it was 100%. The pest or weed control at 100 ppm in the assay with Venturia inaequalis is 100%; in assay [2], 100%; in the assay with Botrytis cinerea, 96%; in assay [3], 98%; in the assay on Pyricularia oryzae it was 7%; with Rhizoctonia solani [4], 97%. The figures for the pest or weed control at 100 ppm in the assay with Puccinia recondita, with Phytophthora infestans and in the assay on Plasmorpara viticola were 100%, 0% and 100%, respectively. Also, the pest or weed control at 5000 g/ha (in the assay on Pythium aphanadermatum; in the assay with Rhizoctonia solani [5]; in [6]; with Sclerotium rolfsii) was 0% in each case. For the same compound, the MIC in assay [7] came to 0.4 µg/mL (≈ 1.11 µM); in assay [8] it was 50 µg/mL (≈ 139 µM).
`C=C(c1ccc(C(F)(F)F)cc1)C(O)(Cn1cncn1)c1ccc(F)cc1` (stereo not drawn) [Example 65]: the responders at 150 mg/kg in assay [1] (ATCC11651, 168 h, day 7) came out at 100%; in assay [1] (ATCC11651, 336 h, day 14), 70%; in assay [1] (ATCC11651, 504 h, day 21) it was 50%. The pest or weed control at 100 ppm was 34% with Venturia inaequalis; 96% in [2]; 94% with Botrytis cinerea; 85% in assay [3]; 30% in the assay with Pyricularia oryzae; 62% in the assay on Rhizoctonia solani [4]. Further, the pest or weed control at 100 ppm with Puccinia recondita is 100%; with Phytophthora infestans, 0%; in the assay with Plasmorpara viticola, 0%. The pest or weed control at 5000 g/ha (in the assay with Pythium aphanadermatum; in the assay with Rhizoctonia solani [5]; in assay [6]; with Sclerotium rolfsii) was 0% each time. The figures for the MIC in assay [7] and in assay [8] were 0.2 µg/mL (≈ 0.53 µM) and 100 µg/mL (≈ 265 µM), respectively.
For `C=C(c1ccc(C(F)(F)F)cc1)C(O)(Cn1cncn1)c1ccc(Cl)cc1` (stereo not drawn) [Example 67], the responders at 150 mg/kg in assay [1] (ATCC11651, 168 h, day 7) was determined as 100%; in assay [1] (ATCC11651, 336 h, day 14) it was 100%; in [1] (ATCC11651, 504 h, day 21) it was 100%. Further, the pest or weed control at 20 ppm in the assay with Venturia inaequalis (20 PPM) was determined as 58%; in assay [2] (20 PPM) it was 99%; in the assay with Botrytis cinerea (20 PPM), 60%; in assay [3] (20 PPM) it was 85%; with Pyricularia oryzae (read-out: disease control rating, Ex. E, 20 PPM), 0%; in the assay with Rhizoctonia solani [4] (20 PPM) it was 35%. Also, the pest or weed control at 20 ppm in the assay on Puccinia recondita (20 PPM) was determined as 89%. The pest or weed control at 100 ppm worked out at 75% with Botrytis cinerea; 0% in the assay with Pyricularia oryzae; 68% in the assay on Rhizoctonia solani [4]; 2% in the assay on Phytophthora infestans; 1% with Plasmorpara viticola. For the same compound, the pest or weed control at 5000 g/ha (with Pythium aphanadermatum; in the assay on Rhizoctonia solani [5]; in [6]; with Sclerotium rolfsii) was 0% in each case. The MIC was found to be 0.03 µg/mL (≈ 0.0762 µM) in [7] and 100 µg/mL (≈ 254 µM) in [8].
